“And” between values parts separate entries of the source, which are not always exact repeats. Identical values can stand only once.
What was measured:
Assay type in all cases: in vivo, dog (canine)
acral lick granuloma [1] = test: Lesion surface area from traced lesion photographs (Adobe Acrobat measurement tool)
From the text: FIG. 2 provides illustrations of the lesion(s) from each dog prior to injection of Study Drug, at Day 14, and at Day 28 of the study, where the lesion is traced for Adobe Acrobat IX determination of lesion area, as further described in Example 1 herein.
(§1) After the screening visit, the dog returned to the site on Day 0 for injection with Study Drug. As a general procedure, dogs were anesthetized using a short-acting anesthetic protocol before injection of the Study Drug. If propofol was used, it was used for induction prior to gas anesthesia but not as a drip to maintain anesthesia. The area to be injected with Study Drug was prepared using site disinfection procedures that are routinely used at veterinary hospital.
(§2) The Study Drug was trans-capsaicin in a solution of polyethylene glycol 300 (PEG 300) and water for injection. The Study Drug was prepared by diluting (i) a solution of PEG 300 containing trans-capsaicin at a concentration of 2 mg/mL (hereinafter “Solution A”) with (ii) sterile water for injection. Solution A was diluted with a volume of sterile water for injection (WFI) in an amount equal to 4 to 5-fold to produce the Study Drug.
(§3) Study Drug was administered to the dog by subcutaneous injection at several locations under the index acral lick granuloma. The goal of the injection was to infiltrate the Study Drug at the junction between the granuloma and healthy tissue throughout the area of the lesion. The dose of trans-capsaicin per lesion to be administered was approximately 1.5 μg of trans-capsaicin per mm^2 of lesion. Each lesion to be injected was measured (mm) for long axis (length) and short axis (width). The approximate surface area was calculated based on an elliptical shape. Based on the calculated lesion areas, the calculated dose of trans-capsaicin per lesion ranged from <0.10 mg to 2.65 mg of trans-capsaicin. Dog reactions during and immediately after the injection procedure were recorded in the study records. Injections of Study Drug were performed using a 22 gauge needle.
(§4) Physical examinations of the dog including the injection site observation were conducted. General and dermatologic exams, including a description, measurements (dimensions), and digital photograph of the index lesion were collected.
(§5) An illustration of the lesion(s) from each dog prior to injection with Study Drug are provided in FIG. 1, along with illustrations of the lesions from each dog at Day 14 and separately at Day 28 of the study. FIG. 2 provides illustrations of the lesions from each dog prior to injection of Study Drug, at Day 14 of the study, and at Day 28 of the study, where the lesion is traced for Adobe Acrobat IX determination of lesion area.

acral lick granuloma [2] = test: Lesion size: measured long and short axis, surface area approximated as an ellipse
Procedure: (§6) Six dogs suffering from acral lick granuloma were treated using injectable capsaicin and evaluated.
as §1, §2, §3, §4, §5

acral lick granuloma [3] = test: Client Specific Outcome Measure (CSOM), owner-scored, in dogs with acral lick granuloma after subcutaneous injection
Procedure: A clinical study was performed to evaluate the effect of injectable capsaicin in treating acral lick granuloma in canines. A total of six dogs suffering from acral lick granuloma were treated using injectable capsaicin and evaluated. Experimental procedures are described in Part I below.
as §6
At a Screening visit, the index lesion was examined. The diagnosis of the index granuloma was made based on characteristics of the lesion and history of licking. Veterinary personnel reviewed with each dog owner the concept and implementation of an Owner-derived efficacy assessment, the Client Specific Outcome Measure (CSOM, based loosely on the CSOM developed for use with osteoarthritis (Gingerich D, and Strobel J. in “Use of client-specific outcome measures to assess treatment effects in geriatric, arthritic dogs: Controlled clinical evaluation of a nutraceutical,” Vet. Ther. (2003) vol. 4, pages 56-66)), to assess the severity and progression of licking behavior associated with the acral lick granuloma. Up to three activities were identified and scored relative to their state prior to the acral lick granuloma (1-no problem, 2-mildly problematic, 3-moderately problematic, 4-severely problematic, 5-impossible). The CSOM assessment was completed at Screening Day (i.e., seven days before administration of capsaicin, also referred to as Day −7), Day 0, Day 14 (±2), and Day 28 (±3) until study termination.
as §1, §2, §3
As noted above, the severity of licking behavior caused by the acral lick granuloma was measured by the owner using a modification of a previously published system (Gingerich and Strobel 2003 noted above). During Screening, dog owners were interviewed by veterinary personnel trained in CSOM assessments (e.g., Study Coordinator) to identify one to three activities that have changed as a result of the acral lick granuloma. Activities focused on the use of the limb(s) with the index lesion and on behavioral responses. For example, excessive licking of the granuloma would be a behavioral response. […]

[4] = individual lesion of individual dog

COc1cc(CNC(=O)CCCC/C=C/C(C)C)ccc1O [Study Drug, trans-capsaicin]
Lesion surface area (Adobe Acrobat) Delta Day 14-baseline (acral lick granuloma [1]; average of lesions): −91 | Lesion surface area (Adobe Acrobat) Delta Day 28-baseline (acral lick granuloma [1]; average of lesions): 3 | Lesion surface area (Adobe Acrobat) Percent Change Day 14 (acral lick granuloma [1]; average of lesions): −8% | Lesion surface area (Adobe Acrobat) Percent Change Day 28 (acral lick granuloma [1]; average of lesions): 7% | Total Size of Lesion at Day 14 (Adobe Acrobat XI measurement tool) (acral lick granuloma [1]; average of lesions): 462 sq mm | Total Size of Lesion at Day 28 (Adobe Acrobat XI measurement tool) (acral lick granuloma [1]; average of lesions): 557 sq mm | Lesion surface area (Adobe Acrobat) Delta Day 14-baseline (acral lick granuloma [1]; individual lesion): −4 and −924 and 37 and −146 and 25 and 282 and 290 and −230 and 106 and −103 and 81 and −503 | Lesion surface area (Adobe Acrobat) Delta Day 28-baseline (acral lick granuloma [1]; individual lesion): −62 and −924 and 76 and −260 and −136 and 594 and 1062 and −216 and 247 and −48 and 146 and −441 | Lesion surface area (Adobe Acrobat) Percent Change Day 14 (acral lick granuloma [1]; individual lesion): −1% and −100% and 19% and −56% and 18% and 29% and 78% and −73% and 22% and −25% and 39% and −42% | Lesion surface area (Adobe Acrobat) Percent Change Day 28 (acral lick granuloma [1]; individual lesion): −11% and −100% (3×) and 39% and 61% and 287% and −68% and 52% and −12% and 70% and −37% | Total Size of Lesion at Day 14 (Adobe Acrobat XI measurement tool) (acral lick granuloma [1]; individual lesion): 568 sq mm and 0 sq mm and 232 sq mm and 114 sq mm and 161 sq mm and 1252 sq mm and 660 sq mm and 86 sq mm and 579 sq mm and 303 sq mm and 290 sq mm and 704 sq mm | Total Size of Lesion at Day 28 (Adobe Acrobat XI measurement tool) (acral lick granuloma [1]; individual lesion): 509 sq mm and 0 sq mm (3×) and 271 sq mm and 1564 sq mm and 1432 sq mm and 100 sq mm and 720 sq mm and 358 sq mm and 355 sq mm and 766 sq mm | Lesion surface area (ellipse) Delta Day 14-baseline (acral lick granuloma [2]; average of 13 lesions): 49 | Lesion surface area (ellipse) Delta Day 28-baseline (acral lick granuloma [2]; average of 13 lesions): 200 | Lesion surface area (ellipse) Percent Change to Day 14 (acral lick granuloma [2]; average of 13 lesions): 6% | Lesion surface area (ellipse) Percent Change to Day 28 (acral lick granuloma [2]; average of 13 lesions): 15% | Lesion surface area Day 14 (approximation of an ellipse) (acral lick granuloma [2]; average of 13 lesions): 533 sq mm | Lesion surface area Day 28 (approximation of an ellipse) (acral lick granuloma [2]; average of 13 lesions): 684 sq mm | Lesion surface area (ellipse) Delta Day 14-baseline (acral lick granuloma [2]; individual lesion): −55 and 291 and 0 and −63 and 163 and 329 and −188 and −115 and 57 and −48 and 263 and 55 and −51 | Lesion surface area (ellipse) Delta Day 28-baseline (acral lick granuloma [2]; individual lesion): −43 and 134 and −20 and −82 and 734 and 1250 and −75 and 151 and 148 and −7 and 393 and 55 and −39 | Lesion surface area (ellipse) Percent Change to Day 14 (acral lick granuloma [2]; individual lesion): −100% and 285% and 0% and −76% and 16% and 62% and −47% and −19% and 20% and −14% and 15% and 5% and −65% | Lesion surface area (ellipse) Percent Change to Day 28 (acral lick granuloma [2]; individual lesion): −79% and 131% and −100% (2×) and 71% and 235% and −18% and 25% and 54% and −2% and 22% and 5% and −50% | Lesion surface area Day 14 (approximation of an ellipse) (acral lick granuloma [2]; individual lesion): 0 sq mm and 393 sq mm and 20 sq mm (2×) and 1195 sq mm and 862 sq mm and 216 sq mm and 483 sq mm and 334 sq mm and 292 sq mm and 2030 sq mm and 1060 sq mm and 27 sq mm | Lesion surface area Day 28 (approximation of an ellipse) (acral lick granuloma [2]; individual lesion): 12 sq mm and 236 sq mm and 0 sq mm (2×) and 1766 sq mm and 1782 sq mm and 329 sq mm and 749 sq mm and 425 sq mm and 333 sq mm and 2160 sq mm and 1060 sq mm and 39 sq mm | Lesion size Day 14-long axis (acral lick granuloma [2]; [4]): 0 mm and 25 mm and 5 mm (2×) and 65.3 mm and 46.5 mm and 18.2 mm and 39.7 mm and 29.7 mm and 25.3 mm and 55 mm and 45 mm and 7 mm | Lesion size Day 14-short axis (acral lick granuloma [2]; [4]): 0 mm and 20 mm and 5 mm (3×) and 23.3 mm and 23.6 mm and 15.1 mm and 15.5 mm and 14.3 mm and 14.7 mm and 47 mm and 30 mm | Lesion size Day 28-long axis (acral lick granuloma [2]; [4]): 5 mm and 20 mm and 0 mm (2×) and 88.2 mm and 65.2 mm and 23.3 mm and 46.1 mm and 31.1 mm and 20.5 mm and 55 mm and 45 mm and 10 mm | Lesion size Day 28-short axis (acral lick granuloma [2]; [4]): 3 mm and 15 mm and 0 mm (2×) and 25.5 mm and 34.8 mm and 18 mm and 20.7 mm (2×) and 17.4 mm and 50 mm and 30 mm and 5 mm | CSOM Day 14 (sum of identified activities) (acral lick granuloma [3]; average of six dogs): 4.8 | CSOM Day 28 (sum of identified activities) (acral lick granuloma [3]; average of six dogs): 6.3 | CSOM Delta Day 14-baseline (acral lick granuloma [3]; average of six dogs): −3.0 | CSOM Delta Day 28-baseline (acral lick granuloma [3]; average of six dogs): −1.5 | CSOM Percent Change to Day 14 (acral lick granuloma [3]; average of six dogs): −41% | CSOM Percent Change to Day 28 (acral lick granuloma [3]; average of six dogs): −26% | benefit to dogs suffering from acral lick granuloma as indicated by CSOM results (acral lick granuloma [3]; conclusion in words): provided a benefit | CSOM Delta Day 14-baseline (acral lick granuloma [3]; individual dog): −1 (2×) and −2 and −6 and −4 (2×) | CSOM Delta Day 28-baseline (acral lick granuloma [3]; individual dog): −1 and 2 (2×) and −4 (3×) | CSOM Day 14 (sum of identified activities) (acral lick granuloma [3]; individual dog, Day 14 after s.c. injection, approx. 1.5 μg trans-capsaicin per mm^2 of lesion): 1 and 7 and 9 and 6 and 2 and 4 | CSOM Day 28 (sum of identified activities) (acral lick granuloma [3]; individual dog, Day 28 after s.c. injection): 1 and 11 and 12 and 8 and 2 and 4 | CSOM Percent Change to Day 14 (acral lick granuloma [3]; individual dog, vs baseline): −50% (3×) and −22% and −10% and −67% | CSOM Percent Change to Day 28 (acral lick granuloma [3]; individual dog, vs baseline): −50% (2×) and 22% and 20% and −33% and −67% | average reduction in CSOM at Day 14 compared with baseline (acral lick granuloma [3]; six dogs): 41% | average reduction in CSOM at Day 28 compared with baseline (acral lick granuloma [3]; six dogs): 26%

From patent publication US20210145772A1, “CAP[…] USE IN TREATING ACRAL LICK GRANULOMA” (Centrexion Therapeutics Corporation, priority 2014, published 2021)
